System: COVID-19 Delta virus-infected mice
Experiment: IL-1β and MCP-1 expression (RT-qPCR) in lung homogenates of COVID-19 Delta virus-infected mice
Type: in vivo, hACE2 transgenic C57BL/6 mice
Conditions: 20 mg/kg administration group

CC(C)=CCC[C@](C)(O[C@@H]1O[C@H](CO)[C@@H](O)[C@H](O)[C@H]1O)[C@H]1CC[C@]2(C)[C@@H]1[C@H](O)C[C@@H]1[C@@]3(C)CC[C@H](O[C@@H]4O[C@H](CO)[C@@H](O)[C@H](O)[C@H]4O[C@@H]4O[C@H](CO)[C@@H](O)[C@H](O)[C@H]4O)C(C)(C)[C@@H]3CC[C@]12C [Ginsenoside Rd, ginsenoside Rd]
ability to inhibit the overexpression of inflammatory mediators compared with Dexamethasone: considerable to that of Dexamethasone
